# Results from patent US20230173083A1, “ALBUMIN-BINDING PRODRUG FOR PREVENTING OR TREATING CANCER AND PHARMACEUTICAL COMPOSITION INCLUDING THE SAME” (KOREA INSTITUTE OF SCIENCE AND TECHNOLOGY, priority 2021, published 2023).
# No end group written: not given here. DOX = doxorubicin
# Legend:
# BSA = BSA (Bos taurus, UniProt P02769); assay: Formation of albumin-prodrug conjugate with BSA (SDS-PAGE); assay type: binding, bovine; details: 1 h; for formation of conjugate with BSA (SDS-PAGE band shift to 50-75 kDa): 1% BSA in PBS, room temperature
# Sequence of BSA (P02769 25-607): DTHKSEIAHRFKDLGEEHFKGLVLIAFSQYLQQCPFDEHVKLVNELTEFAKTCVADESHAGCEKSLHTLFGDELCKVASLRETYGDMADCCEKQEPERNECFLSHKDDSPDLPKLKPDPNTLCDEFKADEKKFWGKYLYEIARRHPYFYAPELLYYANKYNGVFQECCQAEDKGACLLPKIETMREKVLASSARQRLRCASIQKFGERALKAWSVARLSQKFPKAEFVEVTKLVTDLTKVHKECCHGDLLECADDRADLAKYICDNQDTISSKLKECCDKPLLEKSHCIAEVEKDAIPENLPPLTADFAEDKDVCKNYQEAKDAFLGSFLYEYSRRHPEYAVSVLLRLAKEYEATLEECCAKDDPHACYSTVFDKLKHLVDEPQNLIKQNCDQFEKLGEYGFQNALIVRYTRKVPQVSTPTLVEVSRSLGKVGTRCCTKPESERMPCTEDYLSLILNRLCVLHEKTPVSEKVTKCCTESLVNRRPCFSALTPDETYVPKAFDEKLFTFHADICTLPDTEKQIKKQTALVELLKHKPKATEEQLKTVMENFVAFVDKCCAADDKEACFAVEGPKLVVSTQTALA
# Procedure: (§1) To this end, a PBS solution (1 ml) containing 1% albumin (HSA, MSA or BSA) or 1% blocked albumin (blocked HSA, MSA or BSA) was added to 1 mg of the prodrug (Al-ProD) synthesized in Example 1 and incubated at room temperature for various times (0 h, 5 min, and 1 h). After completion of the incubation, samples were analyzed via SDS-PAGE and MALDI-TOF mass spectrometry.
# (§2) τ-maleimido butyric acid was added to 1% albumin (HSA, MSA or BSA) for 1 h to block the thiol group of the albumin. In the “Blocking” row in the table of FIG. 5, the plus signs (+) represent the use of blocked albumin.
# MSA = MSA (Mus musculus, UniProt P07724); assay: Formation of albumin-prodrug conjugate with MSA (SDS-PAGE); assay type: binding; details: 1 h; for formation of conjugate with MSA (SDS-PAGE band shift to 50-75 kDa): 1% MSA in PBS, room temperature
# Sequence of MSA (P07724 25-608): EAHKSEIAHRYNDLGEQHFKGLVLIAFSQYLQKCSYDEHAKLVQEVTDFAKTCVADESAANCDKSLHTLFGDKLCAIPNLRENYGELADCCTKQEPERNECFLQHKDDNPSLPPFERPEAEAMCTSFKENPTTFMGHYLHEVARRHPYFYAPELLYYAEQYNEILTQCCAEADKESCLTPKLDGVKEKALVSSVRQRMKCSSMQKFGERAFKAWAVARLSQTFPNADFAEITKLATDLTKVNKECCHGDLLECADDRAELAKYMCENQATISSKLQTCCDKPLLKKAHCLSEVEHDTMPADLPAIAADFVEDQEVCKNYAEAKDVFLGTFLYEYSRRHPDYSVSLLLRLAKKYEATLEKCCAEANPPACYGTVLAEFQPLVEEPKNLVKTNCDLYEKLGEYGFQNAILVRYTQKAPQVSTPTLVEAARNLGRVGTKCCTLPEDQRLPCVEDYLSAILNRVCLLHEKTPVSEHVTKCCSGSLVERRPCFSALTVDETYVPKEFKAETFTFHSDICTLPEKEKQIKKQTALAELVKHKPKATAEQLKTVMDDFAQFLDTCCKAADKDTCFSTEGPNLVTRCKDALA
# Procedure: as §1, §2
# [1] = Toxicity (body weight, organ histology) in cancer animal models; assay type: in vivo, BALB/c nude mice
# Procedure: (§3) Specifically, all animal experiments were conducted in accordance with the guidelines approved by the Institutional Animal Care and Use Committee of Korea Institute of Science and Technology (KIST). BALB/c nude mice (5.5 weeks old, 20-25 g, male) purchased from Nara Bio INC (Gyeonggi-do, Korea) were used as animal models. 1×10^7 MDA-MB-231 cells were inoculated into the left thigh of each of the mice (n=6) to construct establish a cancer animal model. 5 weeks after inoculation, experiments were conducted when cancer volumes were 250-300 mm^3.
# (§4) Changes in body weight and cancer tissue volume of each group were measured and survivals were analyzed every two days from immediately after injection (day 0). The cancer tissue volume (V; mm^3) was calculated as 0.53 × largest diameter × (smallest diameter)^2. After 20 days, each group was euthanized. Major organs (liver, lung, spleen, kidney, and heart) and cancer tissues were excised and sliced into 10 µm thick sections for histological assays.
# (§5) Specifically, the tissues were fixed with 10% formalin, embedded in paraffin, and sectioned to a thickness of 10 µm. The tissue sections were stained with H&E, terminal deoxynucleotidyl transferase dUTP nick-end labeling (TUNEL), and 4,6-diamidino-2-phenylindole (DAPI, Sigma-Aldrich). Structural changes and toxicities in the tissue sections were evaluated using a ZEISS light microscope or fluorescence microscope.
# (§6) Significance was indicated by *P < 0.05, **P < 0.01, ***P < 0.001.
# [2] = system: MDA-MB-231 cancer tissues; assay: Tumor accumulation by NIRF imaging and CLSM in cancer animal models; assay type: in vivo, BALB/c nude mice
# Procedure: as §3, with “All” for “Specifically, all”
# (§7) After administration of the drugs, noninvasive near-infrared fluorescence (NIRF) imaging data were obtained using an in vivo fluorescence imaging system (IVIS Luminar III) to assess the in vivo tumor accumulation of the prodrug (Al-ProD). The areas under the curves of the time-concentration curves (AUCs) corresponding to the near-infrared data were calculated using Origin 2020 software.
# Animal models were sacrificed 12 h after injection of the drugs and organs (liver, lung, spleen, kidney, and heart) and cancer tissues were excised therefrom. The amounts of the drugs remaining in the major organs and cancer tissues were calculated via fluorescence imaging using IVIS Luminar III. The fluorescence intensities were quantified using the Living Image software (PerkinElmer, USA) and plotted.
# The organs and cancer tissues excised from the animal models were sliced into 10 µm thick sections and treated with DAPI solution for 10 min to stain the cell nuclei blue. The fluorescence of DOX or DAPI from the sections was observed using a confocal laser scanning microscope (CLSM).
# as §6
# [3] = Pharmacokinetics after intravenous administration to cancer animal models; assay type: in vivo, BALB/c nude mice
# Procedure: as §3, with “All” for “Specifically, all”
# as §7, §6
# HSA = HSA (Homo sapiens, UniProt P02768); assay: Formation of albumin-prodrug conjugate with HSA (SDS-PAGE, MALDI-TOF, RP-HPLC); assay type: binding; details: for formation of conjugate with HSA (SDS-PAGE band shift to 50-75 kDa): 1% HSA in PBS
# Procedure: as §1, §2
# [4] = system: MDA-MB-231 cancer tissues; assay: Anticancer efficacy in MDA-MB-231 cancer animal models; assay type: in vivo, BALB/c nude mice; details: for survival / cancer volume: equimolar to 3 mg/kg doxorubicin, tail vein; for cancer volume: FIG. 21, day not given
# Procedure: as §3, §4, §5, §6
# FIG. 16 = assay: FIG. 16
# Source text: Table printed on a drawing sheet, FIG. 16
# First reader's note: The table stands beside a plasma concentration (%) versus time plot; the AUC cells hold the value ± its error and no AUC unit is printed.
# [5] = system: breast cancer cells (MDA-MB-231); assay: Intracellular behavior of DOX by CLSM in breast cancer cells; assay type: cell-based; details: MDA-MB-231, 2 µM, 48 h
# Procedure: (§8) 2×10^4 cancer cells (breast cancer cells (MDA-MB-231)) and normal cells (H9C2) were seeded in cell culture plates for confocal microscopy. As a control, MDA-MB-231 cells were treated and incubated with Cat-B-inhibitory siRNA for 24 h to inhibit the expression of cathepsin B (“MDA-MB-231 (+Cat-B inhibitor)”). […] Then, cells were washed with Dulbecco’s phosphate buffered saline (DPBS) to remove residual drug. Cells were treated with a cell fixative for 15 min and nuclei were stained blue by treatment with a DAPI solution for 10 min.
# [6] = system: breast cancer cells (MDA-MB-231); assay: Cytotoxicity (CCK-8) in breast cancer cells; assay type: cell-based; details: MDA-MB231 cells, 48 h
# Procedure: (§9) An in vitro cell experiment was conducted using breast cancer cells (MDA-MB-231) and rat cardiomyocytes (H9C2) to determine the cancer cell-specific cytotoxicity of the albumin-prodrug conjugate (Al-ProD+HSA). Specifically, cells were cultured and maintained in Dulbecco’s modified Eagle’s medium (DMEM) supplemented with 10% fetal bovine serum (FBS) and 1% penicillin/streptomycin in a humid atmosphere at 5% CO2 and 95% air and at 37° C. […]
# (§10) Cancer cells (breast cancer cells (MDA-MB-231)) or normal cells (H9C2) were seeded at a density of 2×10^4/well in 96-well cell culture plates. […] Then, each well was treated with […] of CCK solution, followed by incubation for 30 min. The absorbance of each 96-well plate was analyzed using a microplate reader (VERSAmax™, Molecular Devices Corp., Sunnyvale, CA) at 450 nm.
# [7] = system: rat cardiomyocytes (H9C2); assay: Intracellular behavior of DOX by CLSM in normal cells; assay type: cell-based; details: H9C2, 2 µM, 48 h
# Procedure: as §8
# [8] = system: rat cardiomyocytes (H9C2); assay: Cytotoxicity (CCK-8) in normal cells; assay type: cell-based; details: 48 h
# Procedure: as §9, §10
# [9] = equimolar to 3 mg/kg doxorubicin, tail vein
compound,measurement,setting,value
COc1cccc2c1C(=O)c1c(O)c3c(c(O)c1C2=O)CC(O)(C(=O)CO)CC3OC1CC(NC(=O)CNC(=O)C(CCCNC(=N)N)NC(=O)C(CCCNC(=N)N)NC(=O)C(Cc2ccccc2)NC(=O)CCOCCOCCNC(=O)CCN2C(=O)C=CC2=O)C(O)C(C)O1 (stereo not drawn) [Al-ProD],formation of conjugate with BSA (SDS-PAGE band shift to 50-75 kDa),BSA,formed a conjugate with each albumin
same,formation of conjugate with blocked BSA (SDS-PAGE),BSA; thiol group of albumin blocked,failed to form a conjugate with the blocked albumin
same,formation of conjugate with MSA (SDS-PAGE band shift to 50-75 kDa),MSA,formed a conjugate with each albumin
same,formation of conjugate with blocked MSA (SDS-PAGE),MSA; thiol group of albumin blocked,failed to form a conjugate with the blocked albumin
same,"H&E staining of normal tissues (heart, lung, liver, kidney, and spleen)",[1]; day 20,no significant damage
same,change in body weight,[1]; [9],no significant changes
same,accumulation / retention in cancer tissues (NIRF imaging),[2]; 0-72 h,a considerable quantity of DOX was retained in cancer tissues even after 72 h
same,fluorescence from cancer tissues relative to free DOX group (NIRF in vivo),[2]; 0-72 h after intravenous administration,3.33-4.08 fold
same,DOX in excised cancer tissue sections (CLSM),[2]; DAPI-stained sections,strong DOX fluorescence from cancer tissues
same,DOX fluorescence from excised cancer tissues relative to free DOX group,"[2]; ex vivo, 12 h after intravenous administration",3.41-4.92 fold
same,extension of in vivo half-life,[3]; by binding to albumin in vivo,at least 3 times
same,time remained in vivo,[3]; [9],50 to 150 h
same,half-life,"[3]; male, BALB/c nude, mouse, in vivo, 3 mg/kg, read-out: half-life (T½ (h))",≥ 3 h
same,extension of in vivo residence time compared to the simple anticancer drug,[3]; vs free DOX,at least 12 times
same,increase of area under the curve (AUC) compared to free DOX,[3]; vs free DOX 3 mg/kg,7 fold
same,formation of conjugate with HSA (SDS-PAGE band shift to 50-75 kDa),"HSA; room temperature, 1 h",formed a conjugate with each albumin
same,time to completion of conjugate formation with HSA,"HSA; RP-HPLC, room temperature",≤ 5 min
same,conjugate formation with thiol-blocked HSA,"HSA; RP-HPLC, up to 60 min",not formed for 60 min
same,formation of conjugate with blocked HSA (SDS-PAGE),"HSA; thiol group of albumin blocked, 1 h",failed to form a conjugate with the blocked albumin
same,H&E and TUNEL staining of cancer tissues,[4]; day 20,induced significant damage to and apoptosis of cancer tissues
same,survival,[4],over 25 days
same,cancer volume,[4],347.42 ± 25.9 mm^3
same,T1/2,FIG. 16,3.1 h
COc1cccc2c1C(=O)c1c(O)c3c(c(O)c1C2=O)C[C@@](O)(C(=O)CO)C[C@@H]3O[C@H]1C[C@H](N)[C@H](O)[C@H](C)O1 [Free DOX],T1/2,FIG. 16,0.25 h
"COc1cccc2c1C(=O)c1c(O)c3c(c(O)c1C2=O)C[C@@](O)(C(=O)CO)C[C@@H]3O[C@H]1C[C@H](N)[C@H](O)[C@H](C)O1 [free DOX, doxorubicin, reference compound]",intracellular location of DOX fluorescence,[5],penetrated the nuclei of both cancer cells and normal cells
same,cytotoxicity,[6],significant cytotoxicities
same,intracellular location of DOX fluorescence,[7],penetrated the nuclei of both cancer cells and normal cells
same,"H&E staining of normal tissues (heart, lung, liver, kidney, and spleen)","[1]; mouse, in vivo",significant structural abnormalities were observed in all tissues
same,DOX in excised cancer tissue sections (CLSM),"[2]; mouse, in vivo",a very small quantity
same,cytotoxicity,[8],significant cytotoxicities
same,day on which more than half of the animals had died,[4]; death from systemic toxicity,15 days
same,survival,[4],≤ 18 days
same,cancer volume,[4],580.25 ± 139.92 mm^3
FRRG(SEQ ID NO: 1)-DOX (FRRG-{DOX}) [reference compound],formation of conjugate with BSA (SDS-PAGE band shift to 50-75 kDa),BSA,did not form conjugates with any albumin
same,formation of conjugate with MSA (SDS-PAGE band shift to 50-75 kDa),MSA,did not form conjugates with any albumin
same,formation of conjugate with HSA (SDS-PAGE band shift to 50-75 kDa),"HSA; room temperature, 1 h",did not form conjugates with any albumin
